This note sets out measurements from PMC10740580, “Benzothiazole-Phthalimide Hybrids as Anti-Breast Cancer and Antimicrobial Agents” (Antibiotics, 2023).

In brackets after ≈: the same amount, converted by molar mass.

The subject of one series is MCF-10A cells. In words: MTT cell viability assay, nonmalignant MCF-10A. To be noted: Homo sapiens, 72 h exposure, nonmalignant breast epithelial cells, mean ± SD, read-out: IC50 MCF10-A. The format is cell-based. As to the method:
The anticancer activity of the studied compounds (3a–h) was explored with regards to two human breast cancer cell lines, namely the estrogen receptor positive (ER+) MCF-7 cells and the triple negative MDA-MB-231 cells (ER-, PR-, and HER-2/Neu-). Cells were continuously exposed to the test substances for 72 h, after which their viability was assessed by means of the MTT assay. Table 2 lists the determined IC50 values for the investigated substances and the reference drug, thalidomide. […] Additionally, the same test for all the compounds has been performed on nonmalignant breast epithelial cells (MCF-10A) to ascertain their potential cytotoxicity.
The four cell lines used in this work (MCF-7, MDA-MB-231, MCF-10A, and 3T3-L1) were obtained from the American Type Culture Collection (ATCC, Manassas, VA, USA). All cell lines were maintained at 37 °C in a humidified atmosphere of 95% air and 5% CO2 and periodically screened for contamination. MCF-7, human breast cancer cells estrogen receptor (ER)-positive, and human breast cancer triple negative MDA-MB231 were grown in DMEM-F12 medium containing 2 mmol/L L-glutamine, 1 mg/mL penicillin–streptomycin, and 5% newborn calf serum (NCS) or 5% fetal bovine serum (FBS), respectively. MCF-10A human mammary epithelial cells were cultured in DMEM/F12 medium, supplemented with 5% horse serum (HS) (Eurobio, Les Ullis, Cedex, France), 100 U/mL penicillin/streptomycin, […], 20 ng/mL hEGF (human epidermal growth factor), […], and […] (Sigma-Aldrich, Milano, Italy). BALB/3T3 murine fibroblast cells were cultured in DMEM high glucose supplemented with 10% bovine calf serum (BCS), 1% L-glutamine, and 100 U/mL penicillin/streptomycin.
Cell viability was evaluated by means of the 3-(4,5-dimethylthiazol-2-y1)-2,5-diphenyltetra zolium bromide (MTT, Sigma-Aldrich, Milan, Italy) assay. On 48-well plates, cells were seeded, and they were cultured in complete medium. Before being treated, cells were starved in serum-free medium for 24 h to allow cell cycle synchronization. Subsequently, cells were exposed to increasing doses of each compound for 72 h in phenol-red-free media supplemented with 1% serum before fresh MTT was added to each well (final concentration: 0.5 mg/mL). Cells were lysed with DMSO after 2 h of incubation at 37 °C, and optical density at 570 nm was then determined with a microplate reader. Using GraphPad Prism 9 software (GraphPad Inc., San Diego, CA, USA), the mean absorbance for each sample was expressed as a percentage over the control and plotted vs. drug concentrations to establish the IC50 values. The given standard deviations (SDs) are indicative of three separate tests carried out in triplicate.
In general terms: Formazan colour is commonly taken as a measure of viable cells.

The subject of series [1] is Staphylococcus aureus 29213. The series can be described thus: Broth microdilution, S. aureus ATCC 29213. It counts as cell-based. To be noted: 24 h, 37 °C. The text has this: (§1) Compounds 3a–h were examined in accordance with the Clinical Laboratory Standards Institute (CLSI) recommendations, by means of the broth microdilution method, against gram-positive bacteria (Staphylococcus aureus 25923, Staphylococcus aureus 29213, Staphylococcus aureus 43300, Enterococcus faecalis 29212) and gram-negative bacteria (Escherichia coli 25922, Klebsiella pneumoniae 13883, Pseudomonas aeruginosa 27853) belonging to the ATCC collection, using levofloxacin as a reference drug. Table 3 lists the results, expressed as MIC (µg/mL). […] The lack of activity observed for compound 3d could be conceivably due to its poor solubility in the culture medium containing the inoculum.
(§2) Following the recommendations of the CLSI (Clinical and Laboratory Standards Institute, 2012), the broth microdilution method was used to determine the in vitro minimum inhibitory concentrations (MICs, µg/mL).. The concentration of the investigated compounds was set to its highest value to create stock solutions. Then, the stock solutions were diluted 1:10 with Cation-Adjusted Mueller Hinton Broth (Oxoid, Milan, Italy). After that, a series of concentrations from 512 µg/mL to […] were obtained in the wells by performing two-fold serial dilutions in the appropriate test medium. The diluent used to create the stock solution was 100% DMSO. We used the following bacterial strains from the ATCC collection that were available as freeze-dried discs: gram-positive strains such as S. aureus ATCC 25923, 29213, and 43300, and E. faecalis ATCC 29212, and gram-negative ones such as E. coli ATCC 25922, K. pneuomoniae ATCC 13883, and P. aeruginosa ATCC 27853. To preserve the purity of cultures and to allow their reproducibility, cryovials of all microbial strains were set up in the medium and stored at −80 °C. Mueller Hinton Broth (MHB) was used to prepare pre-cultures of each bacterial strain, which were then incubated for 3–5 h at 37 °C. In accordance with CLSI procedure M7-A9, the turbidity of the bacterial cell suspension was calibrated to 0.5 McFarland Standard using a spectrophotometric approach (OD625 nm 0.08–0.10). The standardized suspension was then further diluted (1:100) with MHB to reach 1–2 × 10^6 CFU/mL. A 200 µL aliquot of the final inoculum was inserted into each well. As a control for growth, several wells containing only inoculated broth were prepared. The plates were incubated at 37 °C for 24 h, and the MIC values were calculated as the lowest concentration of compounds at which there was no optically detectable bacteria growth. Each experiment was carried out in duplicate and repeated twice to determine the MICs. Levofloxacin served as the study’s standard reference antibiotic. Additionally, the antibacterial activity of DMSO alone (used as a diluent for the investigated compounds) was examined; therefore, volumes of this solvent with a concentration of less than 5% were utilized throughout the experimentation.
A general note: In broth dilution the organism is exposed to a series of concentrations in liquid medium.

For series [2], the system named is Acinetobacter baumanii 19606. In words: Broth microdilution, A. baumanii 19606. The format is cell-based. Conditions: Acinetobacter baumannii, 24 h, 37 °C, read-out: MIC A.b. 19606.
Series [3] deals with Enterococcus faecalis 29212. In words: Broth microdilution, E. faecalis ATCC 29212. The format is cell-based. To be noted: 24 h, 37 °C, read-out: MIC E.f. 29212.
Description: as §1, §2

With `O=C1c2ccccc2C(=O)N1c1nc2ccc(C(F)(F)F)cc2s1` [3c, 2-[6-Trifluoromethyl-1,3-benzothiazol-2-yl]-1H-isoindole-1,3(2H)-dione], the IC50 (commonly the concentration at which inhibition is half-maximal) in the series with MCF-10A cells is greater than 500 µM. Moreover, the values for the MIC in series [1], in series [2] and in series [3] were 128 µg/mL (≈ 367 µM), 128 µg/mL (≈ 367 µM) and 64 µg/mL (≈ 184 µM), respectively.

In the case of `Cc1ccc2nc(N3C(=O)c4ccccc4C3=O)sc2c1` [3d, 2-[6-Methyl-1,3-benzothiazol-2-yl]-1H-isoindole-1,3(2H)-dione], the melting point (in general, the temperature of the solid-liquid transition) was greater than 250 °C. Moreover, the IC50 in the series on MCF-10A cells is greater than 500 µM. In addition, the MIC – broadly, the smallest concentration in the dilution series that meets the test's criterion for growth inhibition – in series [1] was greater than 512 µg/mL. Further, in series [2], the MIC was greater than 512 µg/mL. The MIC in series [3] was greater than 512 µg/mL.

`COc1ccc2nc(N3C(=O)c4ccccc4C3=O)sc2c1` [3e, 2-[6-Methoxy-1,3-benzothiazol-2-yl]-1H-isoindole-1,3(2H)-dione] showed a melting point of 227 to 229 °C. In addition, the half-inhibitory concentration (IC50) with MCF-10A cells was greater than 500 µM. The minimum inhibitory concentration (MIC) in series [1] worked out at 64 µg/mL (≈ 206 µM). Also, the MIC in series [2] is 64 µg/mL (≈ 206 µM). Further, the MIC in series [3] worked out at 64 µg/mL (≈ 206 µM).

Take `O=C1c2ccccc2C(=O)N1c1nc2ccccc2s1` [3a, 2-(1,3-benzothiazol-2-yl)-1H-isoindole-1,3(2H)-dione]: the melting point was in the range of 249 to 250 °C. The concentration for half-maximal inhibition (IC50) in the series on MCF-10A cells was greater than 500 µM. In series [1], this compound gave an MIC of 64 µg/mL (≈ 228 µM). In series [2], the minimal inhibitory concentration (MIC) came to 64 µg/mL (≈ 228 µM). Besides, in series [3], the MIC was found to be 64 µg/mL (≈ 228 µM).

Take `O=C1c2ccccc2C(=O)N1c1nc2ccc(Oc3ccccc3)cc2s1` [3h, 2-[6-Phenoxy-1,3-benzothiazol-2-yl]-1H-isoindole-1,3(2H)-dione]: the IC50 in the series on MCF-10A cells amounted to 193.9 ± 1 µM. For the same compound, the MIC in series [1], in series [2] and in series [3] was 32 µg/mL (≈ 85.9 µM) in each case.

`O=C1c2ccccc2C(=O)N1c1nc2ccc(F)cc2s1` [3b, 2-(6-Fluoro-1,3-benzothiazol-2-yl)-1H-isoindole-1,3(2H)-dione] returned a melting point of 234 to 235 °C. Also, the IC50 in the series with MCF-10A cells came to 151.9 ± 1.1 µM. Also, the MIC in series [1] is 64 µg/mL (≈ 215 µM). Further, the MIC in series [2] worked out at 128 µg/mL (≈ 429 µM). Also, the MIC in series [3] came to 64 µg/mL (≈ 215 µM).

In the case of `COc1cc2nc(N3C(=O)c4ccccc4C3=O)sc2cc1OC` [3f, 2-[5,6-Dimethoxy-1,3-benzothiazol-2-yl]-1H-isoindole-1,3(2H)-dione], the melting point is greater than 250 °C. Further, the IC50 with MCF-10A cells was greater than 500 µM. In addition, in series [1], the MIC came out at 64 µg/mL (≈ 188 µM). In series [2], the minimal inhibitory concentration (MIC) amounted to 64 µg/mL (≈ 188 µM). The minimal inhibitory concentration (MIC) in series [3] stood at 32 µg/mL (≈ 94 µM).

`O=C1c2ccccc2C(=O)N1c1nc2ccc(O)cc2s1` [3g, 2-[6-Hydroxy-1,3-benzothiazol-2-yl]-1H-isoindole-1,3(2H)-dione] registered a melting point greater than 250 °C. Also, the IC50 in the series on MCF-10A cells is greater than 500 µM. For the same compound, the MIC in series [1] was 64 µg/mL (≈ 216 µM). The MIC in series [2] was determined as 64 µg/mL (≈ 216 µM). Besides, in series [3], the MIC is 32 µg/mL (≈ 108 µM).
